In patent US20240174618A1, “SUBSTITUTED (2-HETEROARYLOXYPHENYL)SULFONATES, SALTS THEREOF AND THEIR USE AS HERBICIDAL AGENTS” (Bayer Aktiengesellschaft, priority 2021, published 2024):

Experiments:
Type in all cases: in vivo
[1] = test system: Abutilon theophrasti (ABUTH); assay: A. Herbicidal pre-emergence efficacy, ABUTH; settings: scored visually after about 3 weeks vs untreated controls
Outline: (§1)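 Applied before emergence onto covering soil at rates of 1280 g/ha or less, using 600 L/ha spray water with 0.5% additive. Scoring: visual % efficacy after ~3 weeks, greenhouse.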

[2] = test system: Alopecurus myosuroides (ALOMY); assay: A. Herbicidal pre-emergence efficacy, ALOMY; settings: 1280 g/ha; scored visually after about 3 weeks vs untreated controls
From the text: Seeds of mono- and dicotyledonous weed plants were placed in plastic pots in sandy loam soil (doubly sown with one species each of mono- or dicotyledonous weed plants per pot) and covered with soil. The compounds of the invention, formulated in the form of wettable powders (WP) or as emulsion concentrates (EC), were then applied onto the surface of the covering soil as aqueous suspension or emulsion with addition of 0.5% additive at a water application rate of 600 liters per hectare (converted). After the treatment, the pots were placed in a greenhouse and kept under good growth conditions for the test plants. After about 3 weeks, the efficacy of the preparations was scored visually in comparison with untreated controls as percentages.
For example, • 100% efficacy=plants have died, • 0% efficacy=like untreated control plants.
Tables A1a to A12c below show the effects of selected compounds of the general formula (I) according to table 1 on various harmful plants at an application rate corresponding to 1280 g/ha or less, which were obtained by the experimental procedure mentioned above.

[3] = test system: Digitaria sanguinalis (DIGSA); assay: A. Herbicidal pre-emergence efficacy, DIGSA; settings: scored visually after about 3 weeks vs untreated controls
Outline: as §1

[4] = test system: Echinochloa crus-galli (ECHCG); assay: A. Herbicidal pre-emergence efficacy, ECHCG; settings: scored visually after about 3 weeks vs untreated controls
Outline: as §1

[5] = test system: Kochia scoparia (KCHSC); assay: A. Herbicidal pre-emergence efficacy, KCHSC; settings: pre-emergence
Outline: as §1

[6] = test system: Lolium rigidum (LOLRI); assay: A. Herbicidal pre-emergence efficacy, LOLRI
Outline: as §1

[7] = test system: Matricaria inodora (MATIN); assay: A. Herbicidal pre-emergence efficacy, MATIN; settings: pre-emergence, dosage 1280 g/ha
Outline: as §1

[8] = test system: Poa annua (POAAN); assay: A. Herbicidal pre-emergence efficacy, POAAN
Outline: as §1

[9] = test system: Setaria viridis (SETVI); assay: A. Herbicidal pre-emergence efficacy, SETVI
Outline: as §1

[10] = test system: Stellaria media (STEME); assay: A. Herbicidal pre-emergence efficacy, STEME
Outline: as §1

[11] = test system: Veronica persica (VERPE); assay: A. Herbicidal pre-emergence efficacy, VERPE
Outline: as §1

[12] = test system: Amaranthus retroflexus (AMARE); assay: A. Herbicidal pre-emergence efficacy, AMARE
Outline: as §1

[13] = test system: Abutilon theophrasti (ABUTH); assay: B. Herbicidal post-emergence efficacy, ABUTH; settings: rated visually after about 3 weeks
Outline: (§2)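 Weeds grown in sandy loam in greenhouse and sprayed at the one-leaf stage, 2–3 weeks after sowing, with WP or EC formulations plus 0.5% additive at 600 L/ha water. Injury rated visually versus untreated controls after about 3 weeks (100% = dead, 0% = like control); rates up to 1280 g/ha.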

[14] = test system: Digitaria sanguinalis (DIGSA); assay: B. Herbicidal post-emergence efficacy, DIGSA; settings: 1280 g/ha, rated visually after about 3 weeks
Outline: as §2

[15] = test system: Echinochloa crus-galli (ECHCG); assay: B. Herbicidal post-emergence efficacy, ECHCG; settings: rated visually after about 3 weeks
Outline: as §2

[16] = test system: Kochia scoparia (KCHSC); assay: B. Herbicidal post-emergence efficacy, KCHSC
Outline: as §2

[17] = test system: Lolium rigidum (LOLRI); assay: B. Herbicidal post-emergence efficacy, LOLRI; settings: 1280 g/ha
Description: Seeds of mono- and dicotyledonous weed plants were placed in plastic pots in sandy loam soil (doubly sown with in each case one species of mono- or dicotyledonous weed plants per pot), covered with soil and cultivated in a greenhouse under controlled growth conditions. 2 to 3 weeks after sowing, the test plants were treated at the one-leaf stage. The compounds of the invention, formulated in the form of wettable powders (WP) or as emulsion concentrates (EC), were applied onto the green parts of the plants as aqueous suspension or emulsion with addition of 0.5% additive at a water application rate of 600 liters per hectare (converted). After the test plants had been kept in the greenhouse under optimum growth conditions for about 3 weeks, the activity of the preparations was rated visually in comparison to untreated controls.
For example, • 100% efficacy=plants have died, • 0% efficacy=like untreated control plants
Tables B1a to B12c below show the effects of selected inventive compounds of the general formula (I) according to table 1 on various harmful plants at an application rate corresponding to 1280 g/ha or less, which were obtained by the experimental procedure mentioned above.

[18] = test system: Poa annua (POAAN); assay: B. Herbicidal post-emergence efficacy, POAAN
Outline: as §2

[19] = test system: Setaria viridis (SETVI); assay: B. Herbicidal post-emergence efficacy, SETVI
Outline: as §2

[20] = test system: Stellaria media (STEME); assay: B. Herbicidal post-emergence efficacy, STEME
Outline: as §2

[21] = test system: Veronica persica (VERPE); assay: B. Herbicidal post-emergence efficacy, VERPE
Outline: as §2

[22] = test system: Amaranthus retroflexus (AMARE); assay: B. Herbicidal post-emergence efficacy, AMARE
Outline: as §2

## Cc1cccc(Oc2ncc(Cl)cn2)c1OS(=O)(=O)CCC(F)(F)F [Example I-29]
[1]; 80 g/ha
  Pre-emergence efficacy against ABUTH: 90%
[1]; 320 g/ha
  Pre-emergence efficacy against ABUTH: 100%
[1]; 1280 g/ha
  Pre-emergence efficacy against ABUTH: 100%
[2]
  Pre-emergence efficacy against ALOMY: 90%
[3]; 80 g/ha
  Pre-emergence efficacy against DIGSA: 90%
[3]; 320 g/ha
  Pre-emergence efficacy against DIGSA: 100%
[3]; 1280 g/ha
  Pre-emergence efficacy against DIGSA: 100%
[4]; 320 g/ha
  Pre-emergence efficacy against ECHCG: 100%
[4]; 1280 g/ha
  Pre-emergence efficacy against ECHCG: 100%
[5]; dosage 320 g/ha
  Pre-emergence efficacy against KCHSC: 90%
[5]; dosage 1280 g/ha
  Pre-emergence efficacy against KCHSC: 100%
[6]; dosage 320 g/ha
  Pre-emergence efficacy against LOLRI: 100%
[6]; dosage 1280 g/ha
  Pre-emergence efficacy against LOLRI: 100%
[7]
  Pre-emergence efficacy against MATIN: 90%
[8]; dosage 80 g/ha
  Pre-emergence efficacy against POAAN: 90%
[8]; dosage 320 g/ha
  Pre-emergence efficacy against POAAN: 100%
[8]; dosage 1280 g/ha
  Pre-emergence efficacy against POAAN: 100%
[9]; dosage 320 g/ha
  Pre-emergence efficacy against SETVI: 100%
[9]; dosage 1280 g/ha
  Pre-emergence efficacy against SETVI: 100%
[10]; dosage 80 g/ha
  Pre-emergence efficacy against STEME: 90%
[10]; dosage 320 g/ha
  Pre-emergence efficacy against STEME: 100%
[10]; dosage 1280 g/ha
  Pre-emergence efficacy against STEME: 100%
[11]; 320 g/ha
  Pre-emergence efficacy against VERPE in %: 100%
[11]; 1280 g/ha
  Pre-emergence efficacy against VERPE in %: 100%
[11]; dosage 80 g/ha
  Pre-emergence efficacy against VERPE: 100%
[12]; 80 g/ha
  Pre-emergence efficacy against AMARE in %: 90%
[12]; 320 g/ha
  Pre-emergence efficacy against AMARE in %: 100%
[12]; 1280 g/ha
  Pre-emergence efficacy against AMARE in %: 100%
[13]; 80 g/ha
  Post-emergence efficacy against ABUTH in %: 90%
[13]; 320 g/ha
  Post-emergence efficacy against ABUTH in %: 100%
[13]; 1280 g/ha
  Post-emergence efficacy against ABUTH in %: 100%
[14]
  Post-emergence efficacy against DIGSA in %: 100%
[15]; 320 g/ha
  Post-emergence efficacy against ECHCG in %: 90%
[15]; 1280 g/ha
  Post-emergence efficacy against ECHCG in %: 100%
[16]; 320 g/ha, rated visually after about 3 weeks
  Post-emergence efficacy against KCHSC in %: 100%
[16]; 1280 g/ha
  Post-emergence efficacy against KCHSC: 100%
[17]
  Post-emergence efficacy against LOLRI: 90%
[18]; 320 g/ha
  Post-emergence efficacy against POAAN: 90%
[18]; 1280 g/ha
  Post-emergence efficacy against POAAN: 100%
[19]; 320 g/ha
  Post-emergence efficacy against SETVI: 100%
[19]; 1280 g/ha
  Post-emergence efficacy against SETVI: 100%
[20]; 80 g/ha
  Post-emergence efficacy against STEME: 90%
[20]; 320 g/ha
  Post-emergence efficacy against STEME: 100%
[20]; 1280 g/ha
  Post-emergence efficacy against STEME: 100%
[21]; 80 g/ha
  Post-emergence efficacy against VERPE: 90%
[21]; 320 g/ha
  Post-emergence efficacy against VERPE: 90%
[21]; 1280 g/ha
  Post-emergence efficacy against VERPE: 100%
[22]; 80 g/ha
  Post-emergence efficacy against AMARE: 90%
[22]; 320 g/ha
  Post-emergence efficacy against AMARE: 100%
[22]; 1280 g/ha
  Post-emergence efficacy against AMARE: 100%
